Publication doi:10.1101/2025.08.08.668114, “Structure-Activity Relationship Studies Towards Analogues of Pleconaril as Novel Enterovirus-D68 Capsid-Targeting Antivirals” (bioRxiv, 2025)
In brackets after ≈: the same amount, converted by molar mass. Where two headings read alike, the source gives them in different places.

Legend:
EV-D68 = settings: in-vitro; read-out: Published EV-D68 EC50; cited from earlier work
[1] = test system: cytochrome P450 (CYP) enzyme; parameters: method as in PMID 12802751; settings: after repeated dosing; cited from earlier work
[2] = LogD at pH 7.4, shake-flask method; settings: for logD: pH 7.4
[3] = test system: human pregnane-X receptor (PXR); parameters: method as in PMID 37327878; settings: cited from earlier work
in vitro = settings: human
[4] = Human microsomal stability; settings: for microsomal CLint at 2 µM: human, pH 7.4
P-gp (human MDR1) [5] = assay: in vitro; settings: dog, MDCK-MDR1, MDCKII-MDR1 Papp A→B
physchem = settings: kinetic from dmso stock
[6] = test system: EV-D68 (strain US/MO/14-18949); assay: EV-D68 antiviral screening assay in RD cells
[7] = test system: MDCKII cells transfected with human MDR1 (P-gp); settings: dog, MDCK-MDR1
[8] = Mouse microsomal stability; settings: pH 7.4
[9] = test system: cytochrome P450 (CYP) enzyme; parameters: method as in PMID 37327878; settings: cited from earlier work
RD cells = assay: RD cell cytotoxicity by MTT assay on uninfected cells; settings: geometric mean
[10] = Kinetic aqueous solubility (KSOL), shake-flask method
P-gp (human MDR1) [11] = assay: MDCKII-MDR1 A→B permeability; settings: dog, MDCK-MDR1
[12] = test system: MDCKII cells transfected with human MDR1 (P-gp); assay: MDCKII-MDR1 A→B permeability; settings: apical to basolateral
[13] = Enterovirus D, EVD68, RD, read-out: EC50 EV-D68, RD cells, strain US/MO/14-18949, geometric mean
[14] = Enterovirus D, EVD68, RD, read-out: EV-D68 pEC50, pEC50 = −log10(EC50) (converted), RD cells

| logD [2] | Papp A→B (P-gp (human MDR1) [5]) | solubility kinetic (physchem) | EC50 [6, 13] | microsomal CLint at 2 µM ([8]; liver microsomes) | microsomal CLint at 2 µM ([4]; liver microsomes) | Structure (SMILES) | CC50 (in vitro; RD cells, uninfected) | also measured |
| --- | --- | --- | --- | --- | --- | --- | --- | --- |
| – | – | – | > 30.4 µM | – | – | Cc1cc(-c2noc(C(F)(F)F)n2)ccc1OCCNc1cc(C(=O)N(C)C)no1 [Compound 24] | > 50 µM | – |
| – | – | – | 2.87 µM | – | – | CN(C)C(=O)c1cc(CCCn2ccc3cc(C#N)ccc32)on1 [Compound 25] | > 50 µM | – |
| 3.8 | 15.5 ×10⁻⁶ cm/s | 28 µM (≈ 12.2 µg/mL) | 1.89 µM | 133 µL/min/mg | 30 µL/min/mg | CN(C)C(=O)c1cc(CCCn2ccc3cc(-c4noc(C(F)(F)F)n4)cnc32)on1 [Compound 29] | > 100 µM | – |
| 3 | 3.5 ×10⁻⁶ cm/s | 30 µM (≈ 13 µg/mL) | 8.43 µM | 29 µL/min/mg | 20 µL/min/mg | CN(C)C(=O)c1cc(CCCn2ccc3cc(-c4noc(C(F)(F)F)n4)ncc32)on1 [Compound 30] | > 100 µM | – |
| – | – | – | 4.87 µM | – | – | CN(C)C(=O)c1cc(-c2cccc(Oc3ccc(-c4noc(C(F)(F)F)n4)cc3)c2)on1 [Compound 31] | > 50 µM | – |
| – | – | – | 4.35 µM | – | – | Cc1cc(-c2noc(C(F)(F)F)n2)ccc1Oc1cncc(-c2cc(C(=O)N(C)C)no2)c1 [Compound 32] | > 50 µM | – |
| 4.2 | 4 ×10⁻⁶ cm/s | < 10 µM | 0.437 µM | 38 µL/min/mg | 24 µL/min/mg | Cc1cc(-c2noc(C(F)(F)F)n2)ccc1O[C@@H]1CCN(c2cc(C(=O)N(C)C)no2)C1 [Compound 33] | > 50 µM | Solubility, Kinetic (KSOL) [10]: 9 µM (≈ 4.06 µg/mL) |
| 4.2 | 2.5 ×10⁻⁶ cm/s | < 10 µM | 0.058 µM | 41 µL/min/mg | 22 µL/min/mg | Cc1cc(-c2noc(C(F)(F)F)n2)ccc1O[C@H]1CCN(c2cc(C(=O)N(C)C)no2)C1 [Compound 34] | > 50 µM | EC50 [6, 14]: 0.0589 µM; fold more potent than 33 (EV-D68) ([6]; relative to enantiomer 33): 10 fold; Solubility, Kinetic (KSOL) [10]: 7 µM (≈ 3.16 µg/mL) |
| – | – | – | – | – | – | Cc1cc(-c2noc(C(F)(F)F)n2)ccc1OCCCc1nnc(C(F)(F)F)o1 [Compound 38] | > 50 µM | EC50 ([6]; Enterovirus D, EVD68, RD, read-out: EC50 EV-D68 (Table 4), RD cells, Table 4 head): 39.9 µM |
| 3.1 | – | 198 µM (≈ 61.8 µg/mL) | – | – | – | C#CCc1ccc(OCCCc2cc(C(=O)N(C)C)no2)cc1 [Compound 55] | – | EC50 [6, 14]: 0.617 µM |
| – | – | – | – | – | – | CCO/N=C/c1ccc(OCCC2CCN(c3ccc(C)nn3)CC2)cc1 [Compound S-57, BTA-188] | – | CC50 (RD cells): > 50 µM |
| – | – | – | – | – | – | Cc1nc(-c2ccc(OCCCCCN3CCN(c4ccnc(N)c4)C3=O)cc2)no1 [Compound S-59, NLD-22] | – | CC50 (RD cells): > 25.6 µM |
| – | – | – | – | – | – | Nc1nc(-c2ccccc2)nc2[nH]nc(Nc3ccc(C(F)(F)F)cc3)c12 [Compound S-60, OBR-5-340, reference compound] | – | LogD (pH 7.4) ([2]; pH 7.4, shake-flask): ≥ 4.5; Clint HLM ([4]; human liver microsomes): < 10 µL/min/mg; EC50 ([6]; read-out: EC50 EV-D68, RD cells, strain US/MO/14-18949, geometric mean): 7.16 µM; Solubility, Kinetic (KSOL) [10]: 2 µM (≈ 0.741 µg/mL); CC50 (RD cells): > 50 µM; MDCKII-MDR1 Papp A→B [12]: 1.8 10^−6 cm s^−1 |

| Structure (SMILES) | logD [2] | Papp A→B (P-gp (human MDR1) [5]) | solubility kinetic (physchem) | EC50 [6, 13] | microsomal CLint at 2 µM ([8]; liver microsomes) | microsomal CLint at 2 µM ([4]; liver microsomes) | CC50 (in vitro; RD cells, uninfected) | also measured |
| --- | --- | --- | --- | --- | --- | --- | --- | --- |
| Cc1cc(CCCOc2c(C)cc(-c3noc(C(F)(F)F)n3)cc2C)on1 [Compound 1, Pleconaril] | 4.2 | 1.4 ×10⁻⁶ cm/s | 18 µM (≈ 6.86 µg/mL) | < 0.0295 µM | 22 µL/min/mg | – | > 50 µM | EC50 (EV-D68): 0.43 µM; CYP induction (side effect) [1]: well-known side effect; agonism of human PXR [3]: Neither 1 nor 2 are agonists; microsomal CLint at 2 µM ([4]; microsomes): 12 µL/min/mg; EC50 ([6]; read-out: EC50 EV-D68, RD cells, strain US/MO/14-18949, geometric mean, listed as Pleconaril (1)): < 0.029 µM; MDCKII-MDR1 Papp A→B [7]: 1.42 10^−6 cm s^−1 |
| Cc1cc(-c2noc(C(F)(F)F)n2)ccc1OCCCc1cc(C(=O)N(C)C)no1 [Compound 2, CP-11526092, reference compound] | ≥ 4.5 | 2.3 ×10⁻⁶ cm/s | 9 µM (≈ 3.82 µg/mL) | 0.043 µM | 24 µL/min/mg | 11 µL/min/mg | > 42 µM | EC50 (EV-D68): 0.042 µM; agonism of human PXR [3]: Neither 1 nor 2 are agonists; CYP induction according to in-vitro data [9]: still present; EC50 [6, 14]: 0.0437 µM; Lipophilic Cellular Efficiency (LipCellE) ([6]; cellular pEC50 − AlogP98): > 3; MDCKII-MDR1 Papp A→B [7]: 2.26 10^−6 cm s^−1; CC50 (RD cells; listed as CP-11526092 (2)): > 50 µM |
| CCOC(=O)c1ccc(OCCC2CCN(c3ccc(C)nn3)CC2)cc1 [Compound S-58, Pirodavir, reference compound] | – | – | – | 0.277 µM | – | – | – | CC50 (in vitro): > 50 µM; microsomal CLint at 2 µM ([4]; microsomes): 708 µL/min/mg; microsomal CLint at 2 µM ([8]; microsomes): 580 µL/min/mg; Papp A→B (P-gp (human MDR1) [11]): 9 ×10⁻⁶ cm/s |
